Results taken from article PMC12040169 (PLOS Biology, 2025).

assay: in vitro; settings: human, hela cells, % viability

Going from `COc1ccc([N+](=O)[O-])cc1COc1ccc2ccc(=O)oc2c1` [CBK264597] to `COc1cccc(CNc2ccc(S(N)(=O)=O)cc2)c1OCc1ccccc1F` [CBK267906], the viability at 28.5 h, 10 µM rises from 106% to 108%.

First: Cc1cc(Cl)c(S(=O)(=O)N2CC(C)OC(C)C2)cc1OCC(N)=O (stereo not drawn) [CBK266452]
Second: O=C(COC(=O)C1CCN(S(=O)(=O)c2cccc3cccnc23)CC1)c1ccc([N+](=O)[O-])cc1 [CBK264412]
The viability at 28.5 h, 10 µM of the first is higher: 109% for the first, 101% for the second.

First: CC(O)CNc1nccnc1-c1cccc(CO)c1 (stereo not drawn) [CBK037056]
Second: Nc1cccc(-c2nccnc2NCc2cccnc2)c1 [CBK089310]
The viability at 28.5 h, 10 µM of the first is lower: 91.5% for the first, 105% for the second.

First: COc1ccccc1CN(C)C(=O)Nc1ccc(S(N)(=O)=O)cc1 [CBK306026]
Second: CC(NC(=S)Nc1ccc(S(N)(=O)=O)cc1)c1ccncc1 (stereo not drawn) [CBK267073]
The viability at 28.5 h, 10 µM of the first is lower: 90.4% for the first, 111% for the second.

First: O=c1c(-c2nc3ccccc3s2)coc2c(CN3CCCCC3)c(O)ccc12 [CBK262161]
Second: O=C1NC2(CCc3ccccc31)CCN(Cc1cccnc1)C2 (stereo not drawn) [CBK284620]
The viability at 28.5 h, 10 µM of the first is higher: 106% for the first, 96.5% for the second.

Compared with `COc1cc(-c2cncc(NCc3ccncc3)n2)cc(OC)c1OC` [CBK065263], `COC(=O)C1C(=O)c2cc3c(cc2C1c1cc(OC)c(OC)c(OC)c1)OCO3` (stereo not drawn) [CBK200099] is lower in viability at 28.5 h, 10 µM: 98.9% for the first, 92.5% for the second.

Going from `COc1ccc(CN2CCCN(C(=O)c3ccc(F)cc3Br)CC2)cc1` [CBK251752] to `COc1ccc(CC(=O)Nc2ccc3n(c2=O)C[C@H]2C[C@@H]3CN(C(C)=O)C2)cc1` [CBK289203], the viability at 28.5 h, 10 µM rises from 88.1% to 99.1%.

Compared with `CC(=O)NC(=O)c1cccc(Br)c1` [CBK022890], `O=C(Nc1ccc(O)cc1C(=O)O)c1cccc(Br)c1` [CBK018511] is lower in viability at 28.5 h, 10 µM: 99.3% for the first, 89.1% for the second.

Going from `CC(NC(=O)N(Cc1ccc(CN)cc1)Cc1ccc2ccccc2c1)c1cccc2ccccc12` (stereo not drawn) [CBK046092C] to `CN(C)CCN(Cc1ccccc1)C(=O)NCc1ccc(C#N)cc1` [CBK155097], the viability at 28.5 h, 10 µM falls from 90% to 89.2%.

Going from `O=C(O)c1c[nH]nc1-c1ccc(Br)cc1` [CBK266368] to `CCNC(=O)C(C)NC(=O)c1cnn(-c2ccc(Br)cc2)c1C` (stereo not drawn) [CBK305021], the viability at 28.5 h, 10 µM falls from 91.5% to 79.3%.

Compared with `O=C(CSc1nn2cnnc2s1)Nc1ccc(I)cc1` [CBK268913], `NC(=O)CSc1nnc(NC(=O)c2ccc(Cl)cc2Cl)s1` [CBK287627] is lower in viability at 28.5 h, 10 µM: 88.2% for the first, 86.4% for the second.

Going from `CN(Cc1ccccc1)c1nc2ccccn2c(=O)c1/C=C1/SC(=S)N(CCc2ccccc2)C1=O` [CBK263839] to `O=C1c2ccccc2S(=O)(=O)N1CC(O)Cn1ccc2ccccc21` (stereo not drawn) [CBK267905], the viability at 28.5 h, 10 µM falls from 112% to 97.6%.

First: O=C(O)CNS(=O)(=O)c1ccc(F)cc1 [CBK034464]
Second: O=C(CNS(=O)(=O)Cc1ccccc1[N+](=O)[O-])Nc1ccc(F)cc1 [CBK042228]
The viability at 28.5 h, 10 µM of the first is higher: 122% for the first, 90% for the second.

Compared with `O=C(CCCc1ccccn1)N(Cc1ccccn1)C1CCCC1` [CBK282033], `O=C(NC1CCCC1)c1ccc(-n2ccnc2)c(-n2cccc2)c1` [CBK285368] is lower in viability at 28.5 h, 10 µM: 99.9% for the first, 94.1% for the second.

First: Cc1ccc(/C=N/n2c(S)nnc2COc2ccccc2)o1 [CBK265244]
Second: CCOc1ccc(-c2ncncc2-c2ccccc2)c(O)c1 [CBK288111]
The viability at 28.5 h, 10 µM of the first is higher: 110% for the first, 86.4% for the second.

Compared with `CC(=O)Nc1ccc(S(=O)(=O)N2CCN(S(=O)(=O)c3ccccc3)CC2)cc1` [CBK264163], `O=C(O)c1cccc(CSCC(=O)N2CCC(Cc3ccccc3)CC2)c1` [CBK296675] is higher in viability at 28.5 h, 10 µM: 94% for the first, 102% for the second.

Going from `O=C(O)CCCN1C(=O)c2ccccc2C1=O` [CBK056635] to `O=C(CC1SC(=O)NC1=O)Nc1ccccc1O` (stereo not drawn) [CBK057932], the viability at 28.5 h, 10 µM rises from 91.7% to 98.5%.

Compared with `CC(C)C(=O)N1C2CCC1Cn1c(nc3ccccc3c1=O)C2` (stereo not drawn) [CBK284450], `CCC(CC)C(=O)N1C[C@H]2CCc3nnc(-c4ccccc4)n3[C@H]2C1` [CBK283439] is higher in viability at 28.5 h, 10 µM: 85.3% for the first, 86.7% for the second.

First: CCn1c(SCc2cccnc2)nc2c(c1=O)SC(C)C2 (stereo not drawn) [CBK287643]
Second: CCOC(=O)CSc1c2cc3c(nc2nc(=O)n1Cc1ccccc1)CC(C)(C)OC3 [CBK018608]
The viability at 28.5 h, 10 µM of the first is lower: 87.7% for the first, 94.3% for the second.

First: CN1CCC(Oc2nc3cc(Cl)c(Cl)cc3nc2N2CCCC2)CC1 [CBK115290]
Second: CC(C)Nc1ccc(C(=O)N2CCC(N3CCOCC3)CC2)cn1 [CBK304353]
The viability at 28.5 h, 10 µM of the first is lower: 82.2% for the first, 105% for the second.

Going from `NC1CCN(C(=O)Cn2c3ccccc3c(=O)c3ccccc32)C1` (stereo not drawn) [CBK304300C] to `O=c1[nH]c2c(-c3ccccc3)nnn2c2ccccc12` [CBK288047], the viability at 28.5 h, 10 µM rises from 94.3% to 98.3%.

Compared with `CCOC(=O)c1cn(CC2(CO)CCC2)cc(Oc2ccccc2)c1=O` [CBK306698], `CNC(=O)C1(Cc2ccccc2-c2ccccc2C)CCN(C(=O)Cc2ccccc2)CC1` [CBK285901] is higher in viability at 28.5 h, 10 µM: 97.2% for the first, 106% for the second.

Compared with `CC1(C)CC(=O)C2=C(C1)c1c(ccc3ccccc13)NC2c1ccc(N2CCC(Cc3ccccc3)CC2)c([N+](=O)[O-])c1` (stereo not drawn) [CBK262944], `COc1cc(CNC(=O)NC(=O)C2CCN(CCc3c(-c4ccccc4)[nH]c4ccccc34)CC2)cc(OC)c1OC` [CBK034859] is lower in viability at 28.5 h, 10 µM: 94.2% for the first, 91.7% for the second.

Going from `CN1CCC[C@H]1C(=O)Nc1ccc2ncccc2c1` [CBK159825] to `COC(=O)[C@@H]1Cc2ncn(C(C)C)c2CN1C(=O)c1ccccc1` [CBK288987], the viability at 28.5 h, 10 µM falls from 95.7% to 82.2%.

First: COc1cnn(-c2ccccc2)c(=O)c1N(C)C [CBK020317]
Second: COc1ccccc1-c1cnc2[nH]c(=O)n(Cc3ccc(F)c(Cl)c3)c2n1 [CBK064662]
The viability at 28.5 h, 10 µM of the first is lower: 94% for the first, 103% for the second.

Going from `O=C(CN1C2CCC1CC(O)(c1ccco1)C2)Nc1ccccc1F` (stereo not drawn) [CBK284109] to `COC(=O)[C@H]1CCc2ccccc2N1C(C)=O` [CBK284256], the viability at 28.5 h, 10 µM falls from 96.7% to 90.2%.

Going from `COc1nccc(N2CCC3(CCC(=O)N(CCO)C3)CC2)c1C#N` [CBK307255] to `COc1ccc2[nH]c3c(c2c1)CCNC31CCN(CC(=O)C(C)(C)C)CC1` [CBK039471], the viability at 28.5 h, 10 µM falls from 117% to 98.1%.

First: CC(C)(C)c1cc(N2C(=O)C(O)=C(C(=O)c3ccc(Cl)cc3)C2c2cccc([N+](=O)[O-])c2)no1 (stereo not drawn) [CBK263470]
Second: O=C1Nc2ccccc2/C1=C/c1ccc(-c2cccc(C(=O)O)c2)o1 [CBK077952]
The viability at 28.5 h, 10 µM of the first is higher: 92.8% for the first, 89.4% for the second.

Compared with `Cc1cnc(CNC(=O)c2ccc(-c3ccoc3)nc2)cn1` [CBK156267], `Cc1ccc(-c2cc(C(=O)NCc3cccnc3)c3ccccc3n2)cc1C` [CBK265402] is lower in viability at 28.5 h, 10 µM: 109% for the first, 97.5% for the second.

Compared with `COc1ccc(OCC2CCN(C(=O)[C@@H]3C[C@@H]4C=C[C@H]3C4)CC2)cc1` [CBK282218], `COc1ccc(-c2nn(-c3ccccc3)cc2/C=C2\SC(N3CCC(C(N)=O)CC3)=NC2=O)cc1` [CBK265178] is higher in viability at 28.5 h, 10 µM: 93.5% for the first, 105% for the second.

Going from `CCN(Cc1ccncc1)C(=O)NCc1ccc(F)cc1` [CBK155146] to `CC(=O)NCc1ccc(-c2cc(CN(C)C)n(C)n2)cc1` [CBK281667], the viability at 28.5 h, 10 µM rises from 96.4% to 99.1%.

Compared with `C=CCSc1nc2sc3c(c2c(=O)[nH]1)CCCC3` [CBK287344], `N#Cc1c(NC(=O)CSc2ncnc3c2cnn3-c2ccccc2)sc2c1CCCC2` [CBK269478] is lower in viability at 28.5 h, 10 µM: 110% for the first, 92.6% for the second.

First: O=C(O)c1cccc(NS(=O)(=O)c2ccc(F)c(C(F)(F)F)c2)c1 [CBK155693]
Second: Cc1cc(NC(=O)CS(=O)(=O)c2cccc(C(F)(F)F)c2)on1 [CBK306015]
The viability at 28.5 h, 10 µM of the first is higher: 97.2% for the first, 85.5% for the second.

First: Cn1nc(C2CCCCC2)cc1[C@H]1CN2CC[C@H]1C[C@@H]2CNC(=O)c1ccco1 [CBK289106]
Second: CSCC[C@H](NC(=O)Nc1ccc(N2CCC(C)CC2)cc1)C(=O)O [CBK286743]
The viability at 28.5 h, 10 µM of the first is higher: 95.3% for the first, 86% for the second.

Compared with `COc1ccc(-c2nn(CCC(=O)O)cc2/C=C2\SC(=S)NC2=O)cc1OC` [CBK265318], `COc1cc2c(cc1OC)C1c3ccccc3NC(c3ccc(F)cc3)N1CC2` (stereo not drawn) [CBK286191] is lower in viability at 28.5 h, 10 µM: 108% for the first, 102% for the second.

Going from `O=C(C1=C(O)C(=O)N(CCCN2CCOCC2)C1c1ccc(Cl)c(Cl)c1)c1cccs1` (stereo not drawn) [CBK264565] to `CN1CCN(c2nc3c(c(=O)n(C)c(=O)n3C)n2CCSc2nc3ccccc3o2)CC1` [CBK269452], the viability at 28.5 h, 10 µM falls from 104% to 90%.

First: O=C(c1ccco1)c1coc2ccc(O)cc12 [CBK115570]
Second: O=C(Nc1ccc(SC(F)F)cc1)c1cc(-c2ccncc2)nc2ccccc12 [CBK296092]
The viability at 28.5 h, 10 µM of the first is higher: 113% for the first, 85.8% for the second.

Compared with `O=C(c1cnn(-c2ccc(Cl)cc2)c1C(F)(F)F)N1CCN(c2ncccn2)CC1` [CBK107448], `OCc1ccccc1-c1cncc(N2CCN(c3ccncc3)CC2)n1` [CBK065208] is higher in viability at 28.5 h, 10 µM: 98% for the first, 113% for the second.

Going from `CCOC(=O)c1ccc(NC(=O)Cc2c(C(=O)O)nnn2-c2cccc(C(F)(F)F)c2)cc1` [CBK296932] to `NCCC(=O)N(CCc1cc(C(F)(F)F)cc(C(F)(F)F)c1)c1ccc(Oc2ccccc2)cc1` [CBK002998T], the viability at 28.5 h, 10 µM falls from 106% to 97.7%.

Compared with `Nc1nc2c(ccn2[C@@H]2O[C@H](CO)[C@H](O)C2O)c(=O)[nH]1` (stereo partly drawn) [CBK201190], `O=C1Nc2c(cnn2-c2ccc(F)cc2)C2=NCCN12` [CBK284351] is higher in viability at 28.5 h, 10 µM: 92% for the first, 104% for the second.

First: CC(=O)Nc1ccc(N/C=C(/C#N)c2nc(-c3ccc([N+](=O)[O-])cc3)cs2)cc1 [CBK262377]
Second: COc1ccc(C(=O)Nc2nnc[nH]2)cc1 [CBK025569]
The viability at 28.5 h, 10 µM of the first is higher: 106% for the first, 90.8% for the second.

First: CN1CCN(c2ccc(-c3cc(Nc4cccc(OCc5ccccc5)c4)ncn3)cn2)CC1 [CBK090918]
Second: Nc1nc(OCc2ccncc2)cnc1-c1cnn(Cc2ccccc2)c1 [CBK145194]
The viability at 28.5 h, 10 µM of the first is higher: 113% for the first, 96.7% for the second.

`Cc1c(C(=O)N2CC(n3cc(C(C)(C)O)nn3)C2)sc2cccc(F)c12` [CBK306398] showed a viability at 28.5 h, 10 µM of 91.4%.

same assay, conditions: human, hela cells, % viability, bulk resorufin, single well

Going from `COC(=O)c1ccccc1NC(C)=O` [CBK003522] to `Cc1cc(C)c2c(c1)COC1(CCNCC1)O2` [CBK061574], the viability at 28.5 h, 10 µM falls from 107% to 100%.
